Experimental data from patent US10927096B2, “Ester substituted ion channel blockers and methods for use” (Nocion Therapeutics, Inc., priority 2019, dated 2021).

Key:
NaV1.7 [1] = target: T1, NaV1.7 (Homo sapiens, UniProt Q15858); test: Automated patch clamp (Qube 384), internal block of NaV1.7 in HEK293 cells; type: cell-based; conditions: compound in internal solution, read-out: NaV1.7 Intracellular Inhibition
T1 construct: expressed in transfected cells; host or cells: HEK293, tetracycline-inducible
Description: (§1) NaV1.7 was expressed in HEK293 cells upon induction with tetracycline. Cells were cultured in DMEM containing 10% dialyzed Fetal Bovine Serum (VWR, Radnor, Pa.), 1% Glutamax (VWR, Radnor, Pa.), 1% Penicillin-Streptomycin (VWR, Radnor, Pa.), 100 mg/L Hygromycin (Thermo Fisher Scientific, Waltham, Mass. and 5 mg/L Blasticidin (Alfa Aesar, Haverhill, Mass.). Cells were grown and maintained at 37° C. in a humidified environment containing 10% CO2 in air. Cells were detached from the culture flask for passage and harvested using 0.05% Trypsin-EDTA (Thermo Fisher Scientific, Waltham, Mass.). To induce NaV1.7, cells were induced with tetracycline (0.1-1 μg/mL, IBI Scientific, Peosta, Iowa) the day before recording.
Before experiments, cells were washed with DPBS (VWR, Radnor, Pa.), digested with Detachin (VWR Radnor, Pa.) and then triturated 10 times in CHO Serum-Free Media (VWR Radnor, Pa.) to resuspend the cells and to break apart cell aggregates. Cells were counted and the final concentration was set at 2-5 million cells per mL.
The intracellular solution contained the following: 140 mM CsF, 1 mM/5 mM EGTA/CsOH, 10 mM HEPES, 10 mM NaCl, adjusted to pH 7.3 with CsOH, and osmolality to 320 with sucrose. The external solution contained the following: 145 mM NaCl, 4 mM KCl, 1 mM MgCl2, 2 mM CaCl2, 10 mM HEPES, 10 mM Glucose, adjusted to pH 7.4 with CsOH and osmolality to 305 with sucrose. All chemicals are from Sigma-Aldrich, St. Louis, Mo. In order to test the degree of internal block by test compounds, the compounds were dissolved in internal solution at the indicated test concentration. […] In order to test the degree of external block by test compounds the compounds were dissolved in external solution at the indicated test concentration.
Automated Patch Clamps were performed on Qube 384 (Sophion Bioscience, Woburn Mass.) with multihole Qchips at a temperature setting of 22 degrees. The whole cells configuration was formed with default Qube seal and break-in parameter. The membrane potential was held at −100 mV before the voltage protocol began. Two voltage protocols were followed.
Step 1: Cells were held at −100 mV with a depolarized pulse to −20 mV for 10 ms, the interval was set at 5 s. Currents were corrected by default leak subtraction from every pulse. The duration was set at 5 mins.
Step 2: Cells were held at −100 mV with a depolarized pulse to −20 mV for 10 ms. The frequency was 5 Hz. Currents were corrected by leak subtraction calculated before step 2. The duration was set at 4 mins.
After Step 2, the Qchip was removed from the recording chamber. The internal solution was changed with solutions containing test compounds. Qchips were held at −100 mV without pulsing after being replaced in the recording chamber. The total solution switching time was 8 minutes. After the internal solution exchange, Cells were recorded and step 2 for repeated for 10 minutes.
Data analysis was performed by Sophion Analyzer. Cells were filtered with minimum 50 MOhm seal resistance and minimum 5 nA starting current. The rundown of the currents was corrected with control cells (Non-Drug). The remaining was calculated by averaging last 3 points in the end of experiments. The base line was calculated as the average of last 3 points of Step 2. IC50 curves were plotted with DR-plots/Hill function (a dose-response plot with a Hill fit).
Representative examples of the invention were tested for intracellular inhibition of NaV 1.7 in the automated patch clamp assay. Activity Range is reported as IC50: “++++” (<1 μM), “+++” (1-3 μM), “++” (3-10 μM) or “+” (10-30 μM).

[2] = PAMPA membrane permeability assay; type: physicochemical; conditions: pH 7.4 buffer, GIT lipid, 4 hours incubation
Description: The PAMPA assay (pION, Inc., Woburn Mass.) was used to determine the ability of compounds of the invention to cross an artificial lipid membrane by passive diffusion. Test compounds were dissolved in DMSO (10 mM) and diluted 200-fold in buffer (pION Inc., pH 7.4) to provide 50 uM stock solutions. Buffer (150 μL) was added to a UV blank plate and stock solutions (150 μL) were transferred to a UV reference plate. The blank and reference spectrum were read using a spectrophotometer. Stock solutions (200 μL) were added to the donor plate of the PAMPA sandwich plate and an accept plate painted with GIT lipid (pION Inc, 5 μL) was placed on top. Buffer (200 μL) was added to the acceptor plate and the PAMPA sandwich plate was incubated for 4 hours. Aliquots (150 μL) from the acceptor plate were added to a UV plate and read as acceptor spectrum. Aliquots (150 μL) of the donor solutions were added to a UV analysis plate and read as donor spectrum. The permeability coefficient of test compounds was calculated using PAMPA Explorer™ software (version 3.5.0.4) based on the AUC of the reference plate, the donor plate, and the acceptor plate.
The PAMPA permeability results (10^−6 cm/s) of representative compounds are reported as “+” (<0.1 10^−6 cm/s), “++” (0.1-2.0 10^−6 cm/s), “+++” (2.0-10.010^−6 cm/s) or “++++” (>10.0 10^−6 cm/s).

NaV1.7 [3] = target: T1, NaV1.7; test: Whole cell patch clamp, internal block of NaV1.7 current; type: cell-based; conditions: % inhibition at 1 μM test concentration, compound in internal solution, manual whole cell patch clamp
Description: as §1, with “expressed” for “expressed in HEK293 cells”, “C02” for “CO2”, “recording and plated onto 24-well plates. Cells were washed with DPBS (VWR, Radnor, Pa.), trypsinized and then triturated five times in 10 mL of growth media to break apart cell aggregates. For one 24-well plate, 2 mL of cell suspension was mixed with 23 mL of fresh growth media and 0.1-1 μg/mL tetracycline added. 1 ml of mixed media with cells was then added to each well of a 24-well plate, with a 12 mm coverslip already placed in the bottom of the well. Cells were then incubated in 37° C. and 10% CO2 overnight.” for “recording.”
The intracellular solution contained the following (in mM) CsCl 135, NaCl 10, EGTA 10, HEPES 10, MgCl2 2, adjusted to pH 7.2 with CsOH. The external solution was a normal Ringer solution containing (in mM) NaCl 155, HEPES 10, glucose 10, KCl 3.5, CaCl2 1.5, MgCl2 1 adjusted to pH 7.4 with NaOH. CsCl is from Alfa Aesar, Haverhill, Mass. All other chemicals are from Sigma-Aldrich, St. Louis, Mo. In order to test the degree of internal block by test compounds the compounds were dissolved in internal solution at the indicated test concentration. […] In order to test the degree of external block by test compounds the compounds were dissolved in external solution at the indicated test concentration.
18-24 hours after cells were induced with tetracycline, coverslips were placed into a chamber filled with Normal Ringer solution at room temperature and the chamber placed on a microscope. Pipettes were pulled from borosilicate glass on a P97 puller (Sutter Instrument, Novato, Calif.) and polished with a MF-830 Microforge (Narishige International USA, Inc, Amityville, N.Y.) to have a resistance of 1.5-2.5 MΩ when filled with CsCl internal solution at room temperature. Healthy cells (those that are round and translucent with no visible blemishes) were chosen for seal formation. A seal was formed between the pipette and the cell, and a brief pulse of suction was used to “break in” and establish the whole-cell configuration. The membrane potential was held at −100 mV before the voltage protocol began. Only cells with series resistance between 1.5-5 MΩ were retained for analysis. The voltage protocol was as follows: Cells were held at −100 mV for 12 ms followed by a hyperpolarizing step to −105 mV for 12 ms to monitor the leak. Cells were then stepped back to −100 mV for 40 ms. Cells were then depolarized to −20 mV for 10 ms and then returned to −100 mV for 26 ms (The FIGURE).
Once the recording was started, the voltage protocol was run at 30 second intervals for 5 minutes to get a stable baseline. This was followed by four 30-second periods of 5 Hz stimulation of the same voltage protocol separated by 1 minute of rest which was then followed by 0.33 Hz stimulation after the last train. Currents were recorded using PatchMaster software with Heka EPC10 (HEKA Electronics, Lambrecht, Germany). Only cells with inward current amplitudes at −20 mV between 400 pA and 4 nA were accepted. In addition, cells having leak currents greater than 10% of their current amplitudes were discarded.
The data was plotted using the Patchmaster software (HEKA Electronics, Lambrecht, Germany) and analyzed by plotting the minimum current during the voltage step to −20 mV (peak inward current) as a function of time. […]

T1 sequence (Q15858 whole entry): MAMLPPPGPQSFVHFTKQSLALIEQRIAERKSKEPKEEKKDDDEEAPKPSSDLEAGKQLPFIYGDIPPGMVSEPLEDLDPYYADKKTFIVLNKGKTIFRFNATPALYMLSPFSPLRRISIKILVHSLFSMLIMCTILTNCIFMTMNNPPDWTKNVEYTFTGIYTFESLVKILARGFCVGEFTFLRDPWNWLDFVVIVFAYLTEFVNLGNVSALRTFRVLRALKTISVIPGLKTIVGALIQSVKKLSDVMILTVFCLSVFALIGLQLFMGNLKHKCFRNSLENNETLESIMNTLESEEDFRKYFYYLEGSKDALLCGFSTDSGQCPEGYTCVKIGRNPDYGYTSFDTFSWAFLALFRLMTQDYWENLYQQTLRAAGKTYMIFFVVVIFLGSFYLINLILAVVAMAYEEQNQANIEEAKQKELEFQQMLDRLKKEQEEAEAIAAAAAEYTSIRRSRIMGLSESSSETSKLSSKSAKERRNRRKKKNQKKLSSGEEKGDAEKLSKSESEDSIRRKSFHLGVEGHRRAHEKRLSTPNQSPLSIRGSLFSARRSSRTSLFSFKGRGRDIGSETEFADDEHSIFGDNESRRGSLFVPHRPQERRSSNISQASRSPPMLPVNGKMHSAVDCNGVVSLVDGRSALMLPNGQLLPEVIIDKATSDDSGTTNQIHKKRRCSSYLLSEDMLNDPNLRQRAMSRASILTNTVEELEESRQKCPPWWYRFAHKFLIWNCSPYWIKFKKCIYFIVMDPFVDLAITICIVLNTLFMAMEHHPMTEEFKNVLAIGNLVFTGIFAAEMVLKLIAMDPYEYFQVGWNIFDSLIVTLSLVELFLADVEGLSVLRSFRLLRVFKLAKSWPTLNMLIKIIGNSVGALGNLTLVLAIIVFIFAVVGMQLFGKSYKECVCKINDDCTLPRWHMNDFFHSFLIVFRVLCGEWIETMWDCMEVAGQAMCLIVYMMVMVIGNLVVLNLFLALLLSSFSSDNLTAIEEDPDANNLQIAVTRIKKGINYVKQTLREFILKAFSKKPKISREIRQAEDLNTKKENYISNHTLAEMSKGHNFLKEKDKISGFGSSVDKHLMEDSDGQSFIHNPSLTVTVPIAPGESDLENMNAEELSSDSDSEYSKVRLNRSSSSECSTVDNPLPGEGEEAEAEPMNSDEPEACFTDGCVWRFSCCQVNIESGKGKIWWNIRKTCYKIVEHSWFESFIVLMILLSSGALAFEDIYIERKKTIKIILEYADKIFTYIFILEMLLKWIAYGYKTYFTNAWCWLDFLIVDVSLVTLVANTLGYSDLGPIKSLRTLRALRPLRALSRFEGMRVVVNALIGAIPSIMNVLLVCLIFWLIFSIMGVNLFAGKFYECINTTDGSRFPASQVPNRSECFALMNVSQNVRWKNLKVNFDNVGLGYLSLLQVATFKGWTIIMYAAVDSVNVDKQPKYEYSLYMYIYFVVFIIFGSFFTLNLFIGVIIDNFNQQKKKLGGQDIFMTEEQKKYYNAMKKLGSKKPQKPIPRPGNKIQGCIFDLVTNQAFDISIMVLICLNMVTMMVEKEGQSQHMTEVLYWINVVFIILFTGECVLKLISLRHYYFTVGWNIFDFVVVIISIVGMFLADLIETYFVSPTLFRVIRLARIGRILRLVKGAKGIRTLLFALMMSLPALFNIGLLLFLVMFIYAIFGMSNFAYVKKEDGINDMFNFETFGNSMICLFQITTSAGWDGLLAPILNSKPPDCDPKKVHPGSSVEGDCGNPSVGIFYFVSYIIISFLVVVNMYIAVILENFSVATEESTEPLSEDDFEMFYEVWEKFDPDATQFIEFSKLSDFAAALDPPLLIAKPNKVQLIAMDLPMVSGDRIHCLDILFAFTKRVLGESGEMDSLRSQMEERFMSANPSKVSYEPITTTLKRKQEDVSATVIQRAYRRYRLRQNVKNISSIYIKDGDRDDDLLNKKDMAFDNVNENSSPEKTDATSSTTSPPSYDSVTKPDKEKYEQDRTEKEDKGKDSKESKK

Row | SMILES | IC50 (NaV1.7 [1]) | PAMPA (10^−6 cm/s) [2] | NaV1.7 Intracellular Inhibition (NaV1.7 [3])
1 | COC(=O)c1cccc(C)c1NC(=O)C[N+]1(Cc2ccccc2)CCCC(C(=O)OC2CCCC2)C1.[Br-] (centres unmarked) [Compound 21] | 3000 to 10000 nM | + (<0.1 10^−6 cm/s) | 
2 | CCN(CC)C(=O)C1CCC[N+](CC)(CC(=O)Nc2c(C)cccc2C(=O)OC)C1.[I-] (centres unmarked) [Compound 53] | 1000 to 3000 nM | + (<0.1 10^−6 cm/s) | 
3 | CCOC(=O)c1cccc(C)c1NC(=O)C[N+]1(Cc2ccccc2)CCCCCCC1.[Br-] [Compound 10] |  | + (<0.1 10^−6 cm/s) | +++ (90-70%)
4 | CCNC(=O)C1CCC[N+](CC)(CC(=O)Nc2c(C)cccc2C(=O)OC)C1.O=C[O-] (centres unmarked) [Compound 49] |  | + (<0.1 10^−6 cm/s) | + (<30%)
5 | CCCOC(=O)C1CCC[N+](CC(=O)Nc2c(C)cccc2C(=O)OC)(Cc2ccccc2)C1 (mixture of isomers) [Compound 18] | 1000 to 3000 nM | + (<0.1 10^−6 cm/s) | 
6 | COC(=O)c1cccc(C)c1NC(=O)C[N+]1(Cc2ccccc2)CCCC(C(=O)OC(C)C)C1 (centres unmarked) [Compound 19] | < 1000 nM |  | 
7 | CCN(CC)C(=O)C1CCC[N+](CC(=O)Nc2c(C)cccc2C(=O)OC)(Cc2ccccc2)C1.O=C([O-])C(F)(F)F (centres unmarked) [Compound 38] |  | + (<0.1 10^−6 cm/s) | ++ (70-30%)
8 | COC(=O)c1cccc(C)c1NC(=O)C[N+]1(Cc2ccccc2)CCCC(C(=O)OCC(C)C)C1 (mixture of isomers) [Compound 20] | 1000 to 3000 nM | + (<0.1 10^−6 cm/s) | 
9 | CC[N+]1(CC(=O)Nc2c(C)cccc2C(=O)OC)CCCC(C(=O)NC2CCCC2)C1 (mixture of isomers) [Compound 52] | 1000 to 3000 nM | + (<0.1 10^−6 cm/s) | 
10 | CC[N+]1(CC(=O)Nc2c(C)cccc2C(=O)OC)CCCC(C(=O)OC2CCCC2)C1.[I-] (centres unmarked) [Compound 22] | 1000 to 3000 nM | + (<0.1 10^−6 cm/s) | 
11 | CC[N+]1(CC(=O)Nc2c(C)cccc2C(=O)OC)CCCC(C(=O)NC(C)C)C1.[I-] (centres unmarked) [Compound 50] | 1000 to 3000 nM | + (<0.1 10^−6 cm/s) | 
12 | CC[N+]1(CC(=O)Nc2c(C)cccc2C(=O)OC)CCCC(C(=O)NCC(C)C)C1.[I-] (centres unmarked) [Compound 48] | 1000 to 3000 nM | + (<0.1 10^−6 cm/s) | 
13 | CCCN(CCC)C(=O)C1CCC[N+](CC(=O)Nc2c(C)cccc2C(=O)OC)(Cc2ccccc2)C1.[Br-] (centres unmarked) [Compound 39] |  | + (<0.1 10^−6 cm/s) | + (<30%)
14 | COC(=O)c1cccc(C)c1NC(=O)C[N+]1(Cc2ccccc2)CCCC(C(=O)OC2CCCCC2)C1 (mixture of isomers) [Compound 17] | 3000 to 10000 nM | +++ (2.0-10.010^−6 cm/s) | 
15 | COC(=O)c1cccc(C)c1NC(=O)C[N+]1(Cc2ccccc2)CCCC(C(=O)N2CCCCC2)C1 (mixture of isomers) [Compound 37] | 1000 to 3000 nM | + (<0.1 10^−6 cm/s) | 
16 | COC(=O)c1cccc(C)c1NC(=O)C[N+]1(Cc2ccccc2)CCCC(C(=O)NC2CCCCC2)C1 (mixture of isomers) [Compound 42] | 1000 to 3000 nM | + (<0.1 10^−6 cm/s) | 
17 | CCOC(=O)C1CCC[N+](CC)(CC(=O)Nc2c(C)cccc2C(=O)OC)C1.[I-] (centres unmarked) [Compound 24] |  | + (<0.1 10^−6 cm/s) | ++ (70-30%)
18 | CC[N+]1(CC(=O)Nc2c(C)cccc2C(=O)OC)CCCC(C(=O)N2CCCCCC2)C1 (mixture of isomers) [Compound 51] | 1000 to 3000 nM | + (<0.1 10^−6 cm/s) | 
19 | CCOC(=O)c1cccc(C)c1NC(=O)C[n+]1cccc(C(=O)OC2CCCC2)c1.[Br-] [Compound 68] | 3000 to 10000 nM | +++ (2.0-10.010^−6 cm/s) | 
20 | CCCN(CCC)C(=O)C1CCC[N+](CC)(CC(=O)Nc2c(C)cccc2C(=O)OC)C1 (mixture of isomers) [Compound 47] |  | + (<0.1 10^−6 cm/s) | 
